Laboratory results as given in PubChem BioAssay AID1918931 (Molecular Pharmacology Branch, DTP, NCI, 2023).
Values joined by “and” are separate entries in the source; they are usually repeats but may differ in a detail not shown here. Equal entries are not always repeated.

Tested on: 138582-337-R-J1-PDC complex spheroid viability
Assay: Anticancer human tumor 138582-337-R-J1-PDC patient-derived Merkel cell tumor cell line growth inhibition
Settings: for viability, T/C: stronger effect = lower value
Text: Multicellular complex tumor spheroid response to LSD1 Inhibitor Iadademstat in combination with a variety of drugs and investigational agents in selected tumor cell lines
The current study was undertaken to assess response to LSD1 inhibitors in combination with standard-of-care drugs and investigational agents in solid tumor complex spheroid models as well as in the K-562 leukemia. Complex spheroids include a stromal component modeled by human endothelial cells (HUVEC) and fibroblasts modeled by human mesenchymal stem cells (MSCs). The concentration ranges selected for each drug and investigational agent were based upon clinically achievable concentrations if the clinical Cmax of the agent was known.
Compounds. The drugs and investigational agents used in this study are listed on Table 1. All of the agents used, including staurosporine (NSC755774) and gemcitabine (NSC613327), were obtained from the Developmental Therapeutics Program, NCI. FDA-approved anticancer drugs are available from the NCI at http://dtp.nci.nih.gov/branches/dscb/oncology_drugset_explanation.html. Drugs and investigational agents were >95% pure by proton nuclear magnetic resonance (NMR) and liquid chromatography/mass spectrometry (LC/MS). Stock solutions were prepared at 400x in DMSO, stored at -70 degrees C, and diluted in fresh medium prior to their use. The final concentration of DMSO in cell culture wells never exceeded 0.25% (v/v). The FDA-approved anticancer drug set is available from the Developmental Therapeutics Program at https://dtp.cancer.gov/organization/dscb/obtaining/available_plates.htm. All drugs and investigational agents were tested over a range starting from a high concentration at or near the clinical Cmax and decreasing in half-log increments. If the clinical Cmax for an agent had not been determined, the highest concentration tested was 10 microM.
Cell Lines. The patient-derived cancer cell (PDC) lines: 292921-168-R-J2-PDC, K24384-001-R-PDC, and 521955-158-R2-J5-PDC pancreatic carcinomas, 556581-035-R-J1 ovarian carcinoma, 324938-238-R-J1-PDC, 855422-203-R-J1-PDC and 883617-216-R-J1-PDC urothelial bladder carcinomas, 743489-274-T-PDC renal cell carcinoma, 138582-R-J1 Merkel cell tumor, K60290-347-R-J1 and K57222-313-R-J1-PDC glioblastomas, 653999-131-R-J2-PDC, LG0703-F948-PDC, and 349418-098-R-PDC non-small cell lung carcinomas, 885512-296-R-J2-PDC, 171881-019-R-J1-PDC breast carcinomas and 186277-243-T-J2-PDC and 233499-124-R-J2-PDC colon carcinomas were obtained from the NCI Patient-Derived Models Repository (PDMR, https://pdmr.cancer.gov). The established cell lines NCI/ADR-RES (RRID:CVCL_14520 and OVCAR-5 (RRID:CVCL_1628) ovarian carcinomas, 786-O (RRID:CVCL_1051) and A498 (RRID:CVCL_A498) renal cell carcinoma, NCI-H211 (ATCC, cat. CRL-5824; RRID:CVCL_1529), NCI-H196 (ATCC, cat. CRL-5823, RRID:CVCL_1509), SW 1271 (ATCC, cat. CRL-2177, RRID:CVCL_1716) and NCI-H1876 (ATCC, cat. CRL-5902, RRID:CVCL_1503) small cell lung carcinomas, MDA-MB-231 (RRID:CVCL_0062) and MDA-MB-468 (RRID:CVCL_0419)breast carcinomas (10-12). Pooled donor human umbilical vein endothelial cells (HUVEC, Lonza, cat. CC-2519) and human mesenchymal stem cells (hMSC, Lonza, cat. PT-2501) were purchased from Lonza (Walkersville, MD).
Cell Culture. All cells were maintained in an incubator at 37 degrees C and 5% CO2 with 95% humidity. The PDC lines were cultured according to standard operating procedures established by the NCI PDMR (https://pdmr.cancer.gov). Briefly all PDCs were thawed and cultured in Matrigel-coated flasks prepared with a working solution of 1X Ham's F-12 nutrient mix, without supplementation (Invitrogen, Waltham, MA, cat. 11765054), 100 U/mL penicillin-streptomycin (Invitrogen, cat. 15140122), and 2.5% Matrigel (Corning Inc., Corning, NY, cat. 354248) for the first three passages. […]
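Also: spheroids exposed to agents for 7 days.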
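For viability, T/C in this document: 100% = DMSO vehicle control viability.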

Row | SMILES | viability, T/C (compound 0.00316 µM) | viability, T/C (compound 0.01 µM) | viability, T/C (compound 0.0316 µM) | viability, T/C (compound 0.1 µM) | IC50 (curve of compound) | viability, T/C (compound 0.316 µM) | viability, T/C (compound 1 µM) | viability, T/C (compound 0.00949 µM) | viability, T/C (compound 0.03 µM) | viability, T/C (compound 0.0949 µM) | viability, T/C (compound 0.3 µM) | other results
1 | CC(C)CC(NC(=O)C(Cc1ccccc1)NC(=O)c1cnccn1)B(O)O (configuration not stated) | 0.75% and 0.32% | 0.21% and 0.23% | 0.25% and 0.21% | 0.37% and 0.28% | 0.922 nM and 0.463 nM |  |  |  |  |  |  | viability, T/C (compound 0.000316 µM): 116% and 74.5%
2 | CC(C)CC(NC(=O)CNC(=O)c1cc(Cl)ccc1Cl)B1OC(=O)CC(CC(=O)O)(C(=O)O)O1 (configuration not stated) | 110% and 91.3% | 30.4% and 42.1% | 4.94% and 1.75% | 0.38% and 0.44% | 7.41 nM and 8.3 nM |  |  |  |  |  |  | viability, T/C (compound 0.000316 µM): 105% and 94.4%; viability, T/C (compound 0.001 µM): 102% and 99.3%
3 | CC(C)c1c(-c2ccccc2)nc2c(C#N)c[nH]n2c1=O |  |  | 106% and 89.1% | 92.4% and 85.5% | > 10000 nM and 3700 nM | 92.8% and 89.8% | 97.1% and 71.4% |  |  |  |  | viability, T/C (compound 3.16 µM): 84.7% and 52.7%; viability, T/C (compound 10 µM): 85.2% and 40.5%
4 | CC1(C)CCC(CN2CCN(c3ccc(C(=O)NS(=O)(=O)c4ccc(NCC5CCOCC5)c([N+](=O)[O-])c4)c(Oc4cnc5[nH]ccc5c4)c3)CC2)=C(c2ccc(Cl)cc2)C1 |  |  | 95.7% and 61.2% | 95.8% and 70.4% | > 10000 nM and 3560 nM | 89.5% and 69.6% | 101% and 73.5% |  |  |  |  | viability, T/C (compound 3.16 µM): 101% and 55.5%
5 | CC1COCCN1c1cc(-c2ccnn2C)c2ccnc(-c3ccn[nH]3)c2n1 (configuration not stated) | 76.4% and 67.9% | 86.4% and 64.7% | 69.7% and 48.6% | 61% and 34.3% |  | 61% and 28.5% | 39.8% and 25.1% |  |  |  |  | 
6 | CC1COCCN1c1cc(C2(S(C)(=N)=O)CC2)nc(-c2ccnc3[nH]ccc23)n1 (configuration not stated) |  |  | 91.2% and 97.8% | 85.4% and 99.9% | 8040 nM and 2070 nM | 88.4% and 81.3% | 83.1% and 59.1% |  |  |  |  | viability, T/C (compound 3.16 µM): 68.1% and 46.4%; viability, T/C (compound 10 µM): 45.8% and 38.9%
7 | CCN(c1cc(-c2ccc(CN3CCOCC3)cc2)cc(C(=O)NCc2c(C)cc(C)[nH]c2=O)c1C)C1CCOCC1 |  |  |  |  | > 3000 nM |  |  | 86.8% and 93.2% | 103% and 81.7% | 82.1% and 70.6% | 95.9% and 76.5% | viability, T/C (compound 0.949 µM): 95.5% and 69.7%; viability, T/C (compound 3 µM): 99.3% and 57.8%
8 | CC[C@@]1(O)C(=O)OCc2c1cc1n(c2=O)Cc2cc3c(CN(C)C)c(O)ccc3nc2-1 | 77.7% and 62.7% | 83.7% and 57.4% | 95% and 57.3% | 85.6% and 47.7% | > 100 nM |  |  |  |  |  |  | viability, T/C (compound 0.000316 µM): 91% and 92.2%; viability, T/C (compound 0.001 µM): 103% and 101%
9 | CCc1c2c(nc3ccc(O)cc13)-c1cc3c(c(=O)n1C2)COC(=O)[C@]3(O)CC |  |  |  |  | 8.76 nM and < 0.949 nM |  |  | 48.7% and 26.2% | 11.6% and 0.27% | 0.5% and 0.83% | 0.52% and 0.33% | viability, T/C (compound 0.000949 µM): 71.5% and 50.2%; viability, T/C (compound 0.003 µM): 68.2% and 39%
10 | COc1cc(C2c3cc4c(cc3C(OC3OC5COC(C)OC5C(O)C3O)C3COC(=O)C23)OCO4)cc(OC)c1O (configuration not stated) |  |  |  |  | > 3000 nM and 359 nM |  |  | 81.8% and 78.6% | 73.6% and 82.9% | 78% and 57.8% | 77.3% and 50.9% | viability, T/C (compound 0.949 µM): 73.4% and 48.3%; viability, T/C (compound 3 µM): 74.7% and 34.3%
11 | COc1cc(Nc2ncc3c(n2)-c2ccc(Cl)cc2C(c2c(F)cccc2OC)=NC3)ccc1C(=O)O | 102% and 63.7% | 82.4% and 67.3% | 76.8% and 63.6% | 84.4% and 66.4% | > 1000 nM | 79.4% and 61.6% | 80.4% and 43.7% |  |  |  |  | 
12 | COc1ccc([C@@H](O)c2cc(-c3ncnc4cc(N5CCOCC5)ccc34)c(F)cc2Cl)nn1 |  |  | 92.5% and 76.9% | 79.5% and 91.7% | 1340 nM and 2680 nM | 64.9% and 66.6% | 50.7% and 71.1% |  |  |  |  | viability, T/C (compound 3.16 µM): 45.5% and 46%; viability, T/C (compound 10 µM): 27.3% and 20.6%
13 | Cn1ncnc1C1c2n[nH]c(=O)c3cc(F)cc(c23)NC1c1ccc(F)cc1 (configuration not stated) | 83.5% and 99.5% | 86.7% and 92.9% | 94.4% and 70.4% | 91.1% and 67.1% | > 100 nM |  |  |  |  |  |  | viability, T/C (compound 0.000316 µM): 96.7% and 103%; viability, T/C (compound 0.001 µM): 93.5% and 95.9%
14 | NC1CC1c1ccc(-c2cccc(O)c2)cc1 (configuration not stated) |  |  |  | 75.3% |  |  |  |  |  |  |  | IC50 (compound alone, run of 02/01/2022): > 10000 nM
15 | NC1CCC(NC2CC2c2ccccc2)CC1 (configuration not stated) |  |  |  |  |  | 95.6% and 95.3% |  |  |  |  |  | IC50 (compound alone, run of 01/24/2022): > 10000 nM
16 | NS(=O)(=O)OCC1CC(n2ccc3c(NC4CCc5ccccc54)ncnc32)CC1O (configuration not stated) |  |  |  |  | 504 nM and 82 nM |  |  | 96% and 74.9% | 104% and 63.2% | 93.9% and 50.6% | 67.3% and 30.4% | viability, T/C (compound 0.949 µM): 28% and 26.4%; viability, T/C (compound 3 µM): 27.5% and 32.5%
17 | Nc1ccccc1NC(=O)c1ccc(CNC(=O)OCc2cccnc2)cc1 |  |  |  |  | 1160 nM and 279 nM |  |  | 96.2% and 67% | 93.9% and 66.7% | 86.3% and 61.3% | 80.7% and 49.9% | viability, T/C (compound 0.949 µM): 61.3% and 13.2%; viability, T/C (compound 3 µM): 4.61% and 0.47%
18 | Nc1ccn(C2OC(CO)C(O)C2(F)F)c(=O)n1 (configuration not stated) |  |  |  |  | > 300 nM |  |  | 86.5% and 77.4% | 82.4% and 55.1% | 80% and 59.3% | 112% and 53.6% | viability, T/C (compound 0.000949 µM): 80.2% and 102%; viability, T/C (compound 0.003 µM): 94.3% and 100%
19 | Nc1ncn(C2CC(O)C(CO)O2)c(=O)n1 (configuration not stated) | 102% and 109% | 78.7% and 124% | 90% and 123% | 83.7% and 111% | > 1000 nM | 112% and 122% | 112% and 91.2% |  |  |  |  | 
20 | Nc1ncn(C2CC(O)C(CO)S2)c(=O)n1 (configuration not stated) |  |  |  |  | > 300 nM |  |  | 87.8% and 94.3% | 94.6% and 92.3% | 91.3% and 93.4% | 80.5% and 74.7% | viability, T/C (compound 0.000949 µM): 96.8% and 93.8%; viability, T/C (compound 0.003 µM): 82.8% and 110%
21 | O=C(C=Cc1cccc(S(=O)(=O)Nc2ccccc2)c1)NO |  |  |  |  | 616 nM and 84.4 nM |  |  | 96.1% and 76.4% | 91.5% and 67.6% | 90% and 49.2% | 73.3% and 23.6% | viability, T/C (compound 0.949 µM): 36% and 0.96%
22 | O=C(C=Cn1cnc(-c2cc(C(F)(F)F)cc(C(F)(F)F)c2)n1)NNc1cnccn1 | 79.5% and 60.6% | 49.6% and 56.1% | 24.6% and 29.2% | 15.6% and 17.7% | 9.91 nM and 13 nM | 18.6% and 17.6% | 16.4% and 15.4% |  |  |  |  | 
23 | O=C(c1cc(Cc2n[nH]c(=O)c3ccccc23)ccc1F)N1CCN(C(=O)C2CC2)CC1 |  |  | 106% and 90% | 71.7% and 93.4% | > 10000 nM | 96.6% and 98.8% | 83.5% and 71.4% |  |  |  |  | viability, T/C (compound 3.16 µM): 78% and 57.2%; viability, T/C (compound 10 µM): 82.9% and 63.8%
